This note sets out measurements from patent publication US5670138A, “Mouth-care products” (Sara Lee/DE N.V., priority 1994, dated 1997).

The test system of data set [1] is acid phosphatase and pyrophosphatase. As to the kind of experiment: Inhibition of the enzymatic hydrolysis of pyrophosphate. To be noted: 480 ppm pyrophosphate, tris buffer pH=7. Format: biochemical. The protocol:
To a solution, 3 ml, containing 480 ppm of pyrophosphate, various polymers, as defined in the table, optionally in combination with fluoride, and tris buffer (pH=7), 6*10^-2 U acid phosphatase and 4*10^-2 U pyrophosphatase ware added. The enzymatic hydrolysis of pyrophosphatase was determined by the withdrawal of 0.5 ml samples and measuring the orthophosphate concentration (V/MO complex).

Data set [2] in a line: Triclosan concentration in supernatant with polymer. To be noted: 3000 ppm triclosan, no polymer. As to the method: Polymer and 3000 ppm bactericide (Bromochlorophene (BCP) or triclosan) were solved in distilled water at pH=12.5 (NaOH). […] The bactericide concentration was determined at pH 8, 7 or 6 in the supernatant solution by UV/VIS at pH=12.5 and 37° C.

The structures appear in SMILES notation.

For the molecule `[F-].[Na+]` [NaF, sodium fluoride], in data set [1], the “ppm orthophosphate after 60 min” value was found to be 1.8 ppm, the “ppm orthophosphate after 120 min” value came out at 3.9 ppm and the “ppm orthophosphate after 240 min” value was determined as 9.6 ppm.

As to `Oc1cc(Cl)ccc1Oc1ccc(Cl)cc1Cl` [triclosan, 5-chloro-2-(2,4-dichlorophenoxy)phenol], in data set [2], the “ppm triclosan in supernatant at pH 6” value came to 7 ± 3 ppm, the “ppm triclosan in supernatant at pH 7” value worked out at 15 ± 1 ppm and the “ppm triclosan in supernatant at pH 8” value is 30 ± 2 ppm.
